Values joined by “and” are separate entries in the source; they are usually repeats but may differ in a detail not shown here. Equal entries are not always repeated.
Tests used:
hepatitis C virus [1] = test: Study of interferon alone and interferon plus ribavirin for hepatitis C in HIV-infected patients; assay type: in vivo, human; conditions: interferon alone group, 3 months, 10 patients
Experimental: A study of interferon alone and interferon plus ribavirin for hepatitis C in HIV-infected patients was performed. Ten patients received interferon alone and 11 received the combination treatment of interferon alpha and ribavirin. Median liver biopsy fibrosis score for both groups was 2.1. In the interferon alone group, at 3 months, there was no change in HCV RNA, CD4 dropped from a median of 190 to 186 cells/ml and HIV RNA dropped from a median of 1500 copies per ml to less than 400. At the same time point, 3 months, in the combination group, the HCV RNA dropped from 3.2 million to less than about 600 copies/ml. […] The main adverse event was anemia which occurred in 5/21(23.8%). This was treated with erythropoietin 40,000 units weekly when the hemoglobin declined to 10 g/dl. […] This was the first report of this treatment in patients with HIV infection as well as hepatitis C.

[2] = assay type: in vivo, human
Experimental: Once-weekly recombinant human erythropoietin (epoetin alpha) facilitates optimal ribavirin (RBV) dosing in Hepatitis C virus (HCV)-infected patients receiving Interferon-α-2b (IFN)/RBV combination therapy. RBV dose reduction or discontinuation has been the standard approach to treating hemoglobin (Hb) decreases resulting from IFN/RBV therapy in HCV-infected patients. […] An open-label, randomized, multicenter study was conducted to assess the efficacy and tolerability of once-weekly (QW) epoetin alpha therapy for hemoglobin decreases associated with IFN/RBV therapy and to evaluate the impact of epoetin alpha therapy on RBV dosing. HCV-infected patients who developed hemoglobin levels ≤12 g/dL during the first 24 weeks of combination IFN/RBV therapy (n=60) were randomly assigned to treatment with epoetin alpha (40000 units) subcutaneously once weekly for up to 36 weeks or standard of care (SOC). The primary and secondary efficacy end points were changes from baseline (at Week 16) in hemoglobin level and RBV dose, respectively.

[3] = assay type: in vivo, human; remark: listed apart in the source
Experimental: In an open-label, prospective pilot study, 56 subjects with chronic HCV infection were treated with both RBV and IFN-α. Eighteen subjects with anemia (hemoglobin 10 g/dl or […]) and reduced exercise tolerance following IFN-α/RBV initiation were treated with Epoetin alpha (up to 40,000 units per week subcutaneously). […] At the time of epoetin alpha initiation, the mean hemoglobin level declined 25.4% (to 10.6 g/dL) in the group receiving this treatment. […] Two thirds of subjects receiving epoetin alpha reported improved symptoms. […] Fifty-six chronically HCV-infected (≥90 days) subjects who were treated with IFN-α (3 million units TIW) and RBV (1000 mg/d for subjects <75 kg or 1200 mg/d for subjects ≥75 kg) were entered into an open-label, pilot, prospective study at several centers. […] RBV doses were adjusted by treating physicians as clinically indicated throughout the study. Following INF-α/RBV initiation, subjects with new-onset anemia (hemoglobin ≤10 g/dL or ≥2 g/dL decrease in hemoglobin) or a decrease in hemoglobin accompanied by decreased exercise tolerance (providers' impressions) received epoetin alpha (up to 40,000 units per week, subcutaneously). […] After initiation of epoetin alpha therapy, subjects were evaluated at a 2-week interval for 8 weeks and every 4 weeks thereafter for a maximum of 40 weeks. At each visit, laboratory safety parameters were obtained and, for most subjects, health-care providers recorded whether improvement had occurred in symptoms that typically occur as a side-effect of anemia or after therapy with IFN-α/RBV (e.g., flu-like symptoms, fatigue, dyspnea). […] In addition, clinical benefit of epoetin alpha therapy was evaluated by comparing the percent decline in hemoglobin levels from baseline to initiation of epoetin alpha with the percent recovery in these levels by the last visit. Fisher's exact test or the t-test was used to evaluate the significance of differences between groups with respect to demographic characteristics.

[4] = Erythropoietin 40,000 units weekly for ribavirin-induced anemia; assay type: in vivo, human
Experimental: A study of interferon alone and interferon plus ribavirin for hepatitis C in HIV-infected patients was performed. Ten patients received interferon alone and 11 received the combination treatment of interferon alpha and ribavirin. Median liver biopsy fibrosis score for both groups was 2.1. In the interferon alone group, at 3 months, there was no change in HCV RNA, CD4 dropped from a median of 190 to 186 cells/ml and HIV RNA dropped from a median of 1500 copies per ml to less than 400. At the same time point, 3 months, in the combination group, the HCV RNA dropped from 3.2 million to less than about 600 copies/ml. […] This was treated with erythropoietin 40,000 units weekly when the hemoglobin declined to 10 g/dl. […] This was the first report of this treatment in patients with HIV infection as well as hepatitis C. […] This was done in both HIV seronegative individuals and HIV seropositive individuals.

hepatitis C virus [5] = conditions: with interferon, licensing trials, cited from earlier work

IFN-α
change in HCV RNA (hepatitis C virus [1]): no change

epoetin alpha: recombinant human erythropoietin (r-HuEPO, Epoetin alpha)
mean hemoglobin level at last available assessment ([2]; P<0.05 vs SOC): 13.8 g/dL
mean change in RBV dose at last available assessment ([2]; baseline 998 mg/day, P<0.05 vs SOC): -25 mg/day
mean change from baseline hemoglobin level at last available assessment ([2]; epoetin alpha 40000 units s.c. once weekly, baseline 11.0 g/dL, P<0.05 vs SOC): +2.7 g/dL
tolerability ([2]; human, in vivo): well tolerated
patients treated with RBV doses greater than 10.6 mg/kg per day ([2]; last available assessment, P<0.01 vs SOC): 77%
mean hemoglobin level at the last study visit ([3]; epoetin alpha up to 40,000 units per week s.c., N=18, mean follow-up 25.3 weeks): 12.7 g/dL and 12.7 ± 1.7 g/dL
Dyspnea (%) ([3]; human, in vivo): 80.0%
Dyspnea, median duration (wks) ([3]; human, in vivo): 6.6 wks
Fatigue (%) ([3]; human, in vivo): 73.3%
Fatigue, median duration (wks) ([3]; human, in vivo): 8.2 wks
Flu-like symptoms ([3]; human, in vivo): 46.7
Flu-like symptoms, median duration (wks) ([3]; human, in vivo): 2.7 wks
recovery in mean hemoglobin level after initiation of epoetin alpha ([3]; percent recovery by the last visit): 65.5% and 65.5±56.3%
hemoglobin after erythropoietin treatment ([4]; begun when hemoglobin declined to 10 g/dl, after a median of 4 weeks, HCV/HIV patients): 12.7 g/dL
quality of life ([4]; hemoglobin 11 gr/dl or less, HIV seronegative and seropositive): substantial increase in their quality of life

NC(=O)c1ncn([C@@H]2O[C@H](CO)[C@@H](O)[C@H]2O)n1 [ribavirin]
sustained virologic response rate (hepatitis C virus [5]; at least 10.6 mg/kg ribavirin): over 40%
SVR (response) rate (hepatitis C virus [5]; less than 10.6 mg/kg ribavirin): 28%
